Source: patent US4493830A, “Method for the treatment of idiopathic headache attacks, in particular migraine and cluster headache” (Istituto Farmacologico Serono of Rome, priority 1983, dated 1985)
Counter-ions that a name gives are not always drawn.

Tested on: cluster headache attacks
Test: Double-blind randomized trial of treatment of cluster headache attacks in hospitalized patients
Format: in vivo
Description: Six consenting patients, suffering from cluster headache, were hospitalized. Two presented with a chronic state (more than one year) while the other four were in an attack stage at the moment of entering hospital. The patients received no other pharmaceuticals during the four days prior to commencing the study.
In each patient attacks lasted an average of 1-2 hours.
At the beginning of the attack, 10 minutes after the onset of pain, the patients received one of the following treatments:
500 mcg Somatostatin in 50 ml physiological solution, i.v.;
1 ml physiological solution i.m.;
50 ml physiological solution i.v.;
250 mcg Ergotamine Tartrate in 1 ml physiological solution i.m.
Duration of venous infusion was 20 minutes (50 drops per min.), and was started simultaneously with the i.m. injection. Treatments and patients were randomized and the trial was carried out in double blind.
In total, 9 attacks were treated for each patient, who received treatments (a) (b) or (c) 3 times; in this way, each treatment was used 18 times.
Pain intensity was ascertained every 10 minutes on a visible scale. Values were recorded on the ordinate against the time which was recorded on the abscissa.
3 parameters were used for statistical assessment; maximum intensity of pain expressed in arbitrary units; duration of pain expressed in minutes; area below the curve expressed in arbitrary units. During infusion with Somatostatin, blood pressure and pulse rates were recorded every 10 minutes for an hour.

[1] = versus physiological solution, Somatostatin 500 mcg i.v. infusion or Ergotamine Tartrate 250 mcg i.m.

Structure (SMILES) | Reduction of pain duration as compared with placebo (Somatostatin 500 mcg i.v. infusion or Ergotamine Tartrate 250 mcg i.m.) [%] | Maximum pain intensity (Somatostatin 500 mcg i.v. infusion or Ergotamine Tartrate 250 mcg i.m., physiological solution 7.1±0.3) [arbitrary units] | Area under the pain curve (Somatostatin 500 mcg i.v. infusion or Ergotamine Tartrate 250 mcg i.m., physiological solution 43.8±6.2) [arbitrary units] | Duration of pain (cluster headache patients, Somatostatin 500 mcg i.v. infusion over 20 min or Ergotamine Tartrate 250 mcg i.m., 18 attacks per treatment, physiological solution 93±10) [min] | Reduction of maximum pain intensity [1] [%] | Reduction of the pain area [1] [%] | Variations in blood pressure or pulse rates during infusion (500 mcg i.v. infusion, recorded every 10 minutes for an hour) | Incidence of side-effects as compared with Ergotamine (human, in vivo)
CN1C[C@H](C(=O)N[C@]2(C)O[C@@]3(O)[C@@H]4CCCN4C(=O)[C@H](Cc4ccccc4)N3C2=O)C=C2c3cccc4[nH]cc(c34)C[C@H]21 [Ergotamine, Ergotamine Tartrate] | 41 | 6.2±0.3 | 23.3±3.1 | 55 ± 8 | 13 | 47 | – | –
C[C@H](N)C(=O)NCC(=O)N[C@H]1CSSC[C@@H](C(=O)O)NC(=O)[C@H](CO)NC(=O)[C@H]([C@@H](C)O)NC(=O)[C@H](Cc2ccccc2)NC(=O)[C@H]([C@@H](C)O)NC(=O)[C@H](CCCCN)NC(=O)[C@H](Cc2c[nH]c3ccccc23)NC(=O)[C@H](Cc2ccccc2)NC(=O)[C@H](Cc2ccccc2)NC(=O)[C@H](CC(N)=O)NC(=O)[C@H](CCCCN)NC1=O [Somatostatin] | – | – | – | – | – | – | nor were there significant variations | minor incidence of side-effects
